Measured values reported in the PolyMetriX glass transition set.
± gives the standard deviation of the reports.

glass transition temperature	Compound
32.50 °C	*Oc1ccc(CC(NC(=O)CCc2ccc(OC(=O)CCCC(*)=O)cc2)C(=O)OCCCCCCCC)cc1 (repeat unit)
333.2 ± 39 °C	*c1cccc(N2C(=O)c3ccc(-c4ccc5c(c4)C(=O)N(*)C5=O)cc3C2=O)c1 (repeat unit)
149.00 °C	*Oc1ccc(C(c2ccc(Oc3c(F)c(F)c(C(=O)c4c(F)c(F)c(*)c(F)c4F)c(F)c3F)cc2)(C(F)(F)F)C(F)(F)F)cc1 (repeat unit)
43.30 °C	*O[Si](*)(C)CCCOc1ccc(-c2ccc(OC(=O)CCCCC(=O)OC3CC(C)CCC3C(C)C)cc2)cc1 (repeat unit)
253.00 °C	*c1ccc(Oc2ccc(C(=O)c3ccc(Oc4ccc(N5C(=O)c6ccc(-c7ccc8c(c7)C(=O)N(*)C8=O)cc6C5=O)cc4)cc3)cc2)cc1 (repeat unit)
347.50 °C	*C(=O)c1ccc2c(c1)C(=O)N(c1ccc(-c3cc(C(C)(C)C)c(Oc4ccc(N5C(=O)c6ccc(*)cc6C5=O)cc4)c(C(C)(C)C)c3)cc1)C2=O (repeat unit)
60.00 °C	*CCCCCCCCOC(=O)c1ccc2cc(C(=O)O*)ccc2c1 (repeat unit)
274.00 °C	*C(=O)c1ccc2c(c1)C(=O)N(c1cc(/C=N/C(=S)Nc3ccc(N4C(=O)c5ccc(*)cc5C4=O)cc3)ccc1Cl)C2=O (repeat unit)
141.00 °C	*Oc1ccc(C(=O)c2cccc(NC(=O)CCCCCCCCC(=O)Nc3cccc(C(=O)c4ccc(*)cc4)c3)c2)cc1 (repeat unit)
170.00 °C	*Oc1ccc(OC(=O)c2cc(/N=N/c3ccc(OCC)cc3)ccc2-c2ccc(/N=N/c3ccc(OCC)cc3)cc2C(*)=O)cc1 (repeat unit)
-78.00 °C	*O[Si](*)(C)CCCCCCCCCCC(F)(F)C(F)(F)C(F)(F)C(F)(F)C(F)(F)C(F)(F)C(F)(F)C(F)(F)F (repeat unit)
-59.50 °C	*NC(CCC(=O)OCCCCCCCC)C(*)=O (repeat unit)
146.00 °C	*Oc1ccc(Oc2ccc(C(=O)c3ccc(*)cc3)cc2)cc1-c1cc(C(F)(F)F)cc(C(F)(F)F)c1 (repeat unit)
17.00 °C	*CC(Cc1cccc2ccccc12)C[Si](*)(C)C (repeat unit)
65.00 °C	*CC(COc1ccc(C(C)(C)c2ccc(O*)cc2)cc1)OC(=O)c1ccccc1 (repeat unit)
35.00 °C	*CC(*)c1cccc(B(O[Si](C)(C)C)O[Si](C)(C)C)c1 (repeat unit)
289.00 °C	*C(=O)c1ccc2c(c1)C(=O)N(c1ccc(C(=O)c3ccccc3N3C(=O)c4ccc(*)cc4C3=O)cc1)C2=O (repeat unit)
83.00 °C	*CCOC(=O)c1ccc(C(=O)OCCOc2ccc(C(C)(C)c3ccc(O*)cc3)cc2)cc1 (repeat unit)
145.00 °C	*Oc1cccc(Oc2cccc(*)c2)c1C#N (repeat unit)
310.00 °C	*Oc1c(C)c(C)c(Oc2ccc(NC(=O)c3ccc(C(=O)Nc4ccc(*)cc4)cc3)cc2)c(C)c1C (repeat unit)
100.00 °C	*CC(*)(C)C(=O)OC1CCC(C(C)(C)C)CC1 (repeat unit)

glass transition temperature	Compound
209.00 °C	*c1ccc(-c2ccc(N(*)c3cc(C(F)(F)F)cc(C(F)(F)F)c3)cc2)cc1 (repeat unit)
33.00 °C	*/C=C/c1ccc(/C=C/[Si](C)(C)c2cccc([Si](*)(C)C)c2)cc1 (repeat unit)
319.00 °C	*c1cc(Br)c(OC(=O)c2ccc(C(=O)Oc3c(Br)cc(C4(*)OC(=O)c5ccccc54)cc3Br)cc2)c(Br)c1 (repeat unit)
195.00 °C	*Oc1ccc(OC(=O)c2ccc(C(C)(C)c3ccc(C(*)=O)cc3)cc2)cc1 (repeat unit)
295.00 °C	*c1ccc(Oc2ccc(Oc3ccc(Oc4ccc(-n5c(=O)c6cc7c(=O)n(*)c(=O)c7cc6c5=O)cc4)cc3)cc2)cc1 (repeat unit)
238.00 °C	*C(=O)Nc1ccc(Oc2ccccc2-c2ccccc2Oc2ccc(NC(=O)c3ccc4c(c3)C(=O)N(c3ccc(Oc5ccc(Oc6ccc(N7C(=O)c8ccc(*)cc8C7=O)cc6)cc5)cc3)C4=O)cc2)cc1 (repeat unit)
-15.00 °C	*CCCCCCCCCCOC(=O)CC/C=C/CCC(=O)O* (repeat unit)
-28.50 °C	*O[Si](C)(C)c1c(F)c(F)c(F)c([Si](*)(C)C)c1F (repeat unit)
158.00 °C	*Oc1ccc(Oc2ccc(S(=O)(=O)c3ccc(Oc4ccc(Oc5cccc(*)n5)cc4)cc3)cc2)cc1 (repeat unit)
399.00 °C	*c1ccc(-c2ccc(N3C(=O)c4c(c(-c5ccccc5)c(-c5ccc(Oc6ccc(-c7c(-c8ccccc8)c8c(c(-c9ccccc9)c7-c7ccccc7)C(=O)N(*)C8=O)cc6)cc5)c(-c5ccccc5)c4-c4ccccc4)C3=O)cc2)cc1 (repeat unit)
124.00 °C	*Oc1ccc(C(C)(CC)c2ccc(OC(=O)OC3C(C)(C)C(OC(*)=O)C3(C)C)cc2)cc1 (repeat unit)
127.00 °C	*CCCCCCN1C(=O)c2ccc(C(=O)c3ccc4c(c3)C(=O)N(*)C4=O)cc2C1=O (repeat unit)
213.20 °C	*Nc1ccc(NC(=O)c2cc(C(=O)c3ccc(C(=O)O)c(C(*)=O)c3)ccc2C(=O)O)cc1 (repeat unit)
61.00 °C	*OC(=O)C(CCSC)NC(=O)CCCCCCCCC(=O)NC(CCSC)C(=O)OC1COC2C(*)COC12 (repeat unit)
36.00 °C	*CCCCCCOc1ccc(C(C)(C)c2ccc(O*)cc2)cc1 (repeat unit)
65.00 °C	*/C=C/c1cc(OCCCC)c(*)cc1OC (repeat unit)
125.00 °C	*c1cccc(NC(=O)CCCCCCC(=O)Nc2cccc(S(*)(=O)=O)c2)c1 (repeat unit)
57.00 °C	*O[Si](*)(C)CCCOc1ccc(C(=O)Oc2ccc(C#N)cc2)cc1 (repeat unit)
94.00 °C	*CCCCCCCCCCNC(=O)c1ccc(C(=O)N*)c(Oc2ccccc2)c1 (repeat unit)
36.00 °C	*CCCCCCCCCCCCOC(=O)NCCCCCCNC(=O)O* (repeat unit)
156.00 °C	*CC(*)c1ccc(C([Si](C)(C)C)[Si](C)(C)C)cc1 (repeat unit)

Compound	glass transition temperature
*CC(*)(C)CCC (repeat unit)	27.00 °C
*CC(OC)C1(C)C(=O)OC(=O)C1(*)C (repeat unit)	260.00 °C
*c1cccc(P(=O)(c2ccccc2)c2cccc(-n3c(=O)c4cc5c(=O)n(*)c(=O)c5cc4c3=O)c2)c1 (repeat unit)	331.00 °C
*CC(CC)N(*)C(=O)CCCC (repeat unit)	52.00 °C
*Oc1c(C)cc(*)cc1-c1ccccc1 (repeat unit)	180.00 °C
*CC(*)c1ccccc1C(=O)O (repeat unit)	177.00 °C
*CC(CC)(CO*)COC(=O)C(=C)C (repeat unit)	40.00 °C
*Nc1cccc2c1C(=O)c1cccc(N[Se]*)c1C2=O (repeat unit)	52.00 °C
